In patent US20230348401A1, “Inhibitors of Glucose-6-phosphate Dehydrogenase and Uses Thereof” (The Trustees of Princeton University, priority 2020, published 2023):

How the values were obtained:
[1] = tested on: RBCs; assay: NADPH pools in red blood cells; assay type: cell-based, mouse
Description: To isolate red blood cells, mice were euthanized by cervical dislocation followed by collection of approximately 200 µL whole blood via cardiac puncture into tubes containing 7.5 µL heparin (1000USP/mL, H3393, Sigma Aldrich). The cells were incubated on ice for approximately 5 minutes, then centrifuged (5 minutes, 500 rpm, 4° C.) followed by aspiration of the serum and buffy coat layer. Cells were gently resuspended in PBS and then pelleted (5 minutes, 500 rpm, 4° C.) three times. Cells were then resuspended in RPMI media and used immediately for experiments.
For suspension cells (including T cells and red blood cells), 2×10^6 cells were seeded in 1 mL of media in 12-well plates and incubated with appropriate media, which included isotope tracers and/or chemical inhibitors and/or cytokines, as described. For all experiments involving small molecule agents, DMSO concentrations were <0.2%. After 2 hours, cell suspensions were transferred to 1.5 mL tubes and pelleted (30 seconds, 6000 rpm, room temperature). Media was removed by aspiration and metabolome extraction was performed by the addition of 75 µL of ice cold solvent (40:40:20 ACN:MeOH:H2O + 0.5%FA). After a 5-minute incubation on ice, acid was neutralized by the addition of NH4HCO3. […]

[2] = tested on: active CD8+ or CD4+ cells; assay: Intracellular cytokines in active T cells after PMA and ionomycin; assay type: cell-based, mouse
Description: To analyze intracellular cytokines, active T cells were re-stimulated with PMA (20 ng/ml) and ionomycin (1 µg/ml) in the presence of GolgiStop and increasing concentrations of G6PDi-1. After a 6-hour incubation period, cells were collected, washed with PBS and stained with the viability dye Live/Dead Aqua. Cells were then washed with staining buffer and stained for surface markers: CD4 (APC-Cy7, clone RM4-5,), CD8a (PerCP-Cy5.5, clone 53-6.7). Cells were then fixed and permeabilized and stained for intracellular cytokines: IFN-γ (FITC, clone XMG1.2), TNFα (PE-Cyanine7, clone MP6-XT22) and IL-2 (PE, clone JES6-5H4). To analyze intracellular cytokines, mature macrophages were stimulated with LPS (100 ng/mL) + IFNγ (20 ng/mL) in the presence of GolgiStop and increasing concentrations of G6PDi-1. After a 6-hour incubation period, cells were collected, washed with PBS and stained with the viability dye Live/Dead Aqua. Cells were then fixed and permeabilized and stained for intracellular cytokines: TNFα (PE-Cyanine7, clone MP6-XT22) and IL-10 (V450, clone JES5-16E3).

[3] = tested on: naïve CD8+ T cells; assay: T cell activation, proliferation and viability (flow cytometry); assay type: cell-based, mouse
Description: The functional consequences of oxPPP inhibition were next explored using G6PDi-1 in T cells. To test the effect of G6PDi-1 on activation and proliferation, naïve CD8+ T cells were isolated from spleen and activated in vitro with plate-bound αCD3/αCD28 and IL-2. Activation was evaluated by flow cytometry analysis of surface markers CD69 (levels rapidly rise upon activation) and CD25 (usually peaking at 24-48 hours post-activation), and cell size, which increases over the first 24 hours post-activation. To quantify proliferation, naïve cells were stained with […] (CTV) and dye dilution was measured by flow cytometry at day 4 post-activation.
To analyze cell surface markers expression, cells were collected, washed with PBS and stained with the viability dye Live/Dead Aqua. Cells were then washed with staining buffer and stained for surface markers: CD4 (APC-Cy7, clone RM4-5,), CD8a (PerCP-Cy5.5, clone 53-6.7), CD25 (APC, clone PC61), CD44 (PE-Cy7, clone IM7), CD62L (PE, clone MEL-14) CD69 (FITC, clone H1.2F3), for T cells; CD11b (APC, clone M1/70 and F4/80 (FITC, clone BM8) for macrophages.
To analyze proliferation, naïve CD8 T cells were stained with CTV dye and either maintained in a naïve state with IL7 or stimulated with αCD3/αCD28 + recombinant IL-2 in the presence of increasing concentrations of G6PDi-1. Cells were refed at days 2 and 3 post-stimulation, and proliferation was measured at day 4 post-activation. Cells were collected, washed with staining buffer and stained with the viability dye propidium iodide.

[4] = tested on: human neutrophils; assay: Neutrophil oxidative burst assay (human); assay type: cell-based; conditions: PMA, 50 µM
Description: Human neutrophils were isolated from 8 ml of blood collected from healthy donors following the protocol approved by the University of Wisconsin Institutional Review Board (Protocol No. 2019-1031-CP001). Neutrophils were purified using the MACSxpress Whole Blood Neutrophil Isolation Kit (Miltenyi Biotec 130-104-434) followed by erythrocyte depletion (Miltenyi Biotec 130-098-196) according to the manufacturer’s instructions.
Suspended neutrophils were plated in culture wells pre-coated with CELL-TAK™ (Corning), spun at 200 × g for 1 minute with minimal acceleration/deceleration, and then incubated for 1 hour at 37° C. Murine neutrophils were plated at 2×10^5 cells/well in RPMI 1640 media without sodium bicarbonate. Human neutrophils were plated at 5×10^4 cells/well in RPMI 1640 media supplemented with 0.1% human serum albumin. Inhibitor (G6PDi-1, 50 µM) or vehicle control were added just prior to starting the assay. Mouse neutrophils were also treated with rotenone (0.5 µM, BioVision) + antimycin A (0.5 µM, BioVision) at t = 20 minutes. Oxidative burst was stimulated with PMA (100 nM, Cayman Chemical); oxygen consumption rate was measured using the XF-96e extracellular flux analyzer (Seahorse Bioscience).

For `N#Cc1cc(Nc2ncc3c(n2)CCCCC3=O)cs1` [Compound 2, 4-([5-oxo-6H,7H,8H,9H-cyclohepta[d]pyrimidin-2-yl]amino)thiophene-2-carbonitrile], the “sensitivity of NADPH pools” value [1] was “fairly sensitive”, the cytokine production ([2]; CD8+ and CD4+ T cells, PMA and ionomycin, 6 h) was “blocked cytokine production” and the “IFNγ mRNA” value ([2]; active CD8+ T cells) was “decreased”. The “proliferation of CD4+ T cells” value ([3]; CD4+ T cells) was “minimal effect”, the viability ([3]; CD8+ T cells) was “minimal effect” and the activation-dependent proliferation ([3]; CD8+ T cells, day 4 post-activation) was “minimal effect”. For the same compound, the “upregulation of activation markers and activation-dependent increase in cell size” value ([3]; CD8+ T cells, αCD3/αCD28 and IL-2) was “did not alter” and the “oxidative burst (oxygen consumption rate)” value [4] was “decreased oxidative burst”.
